Test results reported in patent US12383608B2, “WT1 helper peptides and combinations of WT1 helper peptide and conjugate of cancer antigen peptides” (Sumitomo Pharma Co., Ltd., priority 2016, dated 2025).

Test system: HLA-A*02:01 transgenic mouse (C57BL/6CrHLA-A2.1DR1)
Assay: In vivo CTL induction in HLA-A*02:01 transgenic mouse (IFNγ ELISPOT assay on splenocytes)
Conditions: Montanide ISA 51 VG, intradermal; for Effect of the cocktail vaccine comprising the peptide on the CTL induction by the compound of formula (4): cocktail vaccine: helper peptide (170-315 μg per site) + compound of formula (4) (250 μg per site), molar ratio 1:1.13-1.15 or equimolar, compared with compound of formula (4) alone; for CTL induction by the cocktail vaccine comprising the peptide in addition to the compound of formula (4) (increase in number of CTLs): cocktail vaccine: helper peptide + compound of formula (4), compared with the vaccine comprising the compound of formula (4)
Procedure: The HLA-A*02:01 transgenic mouse (C57BL/6CrHLA-A2.1DR1) lacks mouse MHC, and instead expresses a chimeric IILA of a human MHC, HLA-A*02:01 with a mouse MHC, H-2Db, and HLA-DRB1*01:01.
The solution was diluted with water for injection to a concentration of 10 mg/ml, and then converted to an emulsion by addition of an equal volume of Montanide ISA 51 VG. […] One week after the administration, the mice were sacrificed with CO2 gas. Splenocytes were harvested from spleens removed from the mice. For detecting IFNγ-producing splenocytes, an IFNγ ELISPOT assay kit was used. In particular, an ELISPOT plate was treated with an anti-mouse-IFNγ antibody on the day before preparation of the splenocyte samples. On the next day, the plate was blocked by treatment with an RPMI 1640 medium with 10% FBS. To the blocked ELISPOT plate, the splenocyte samples from the HLA-A*02:01 transgenic mice were added at 1.25×10^5 cells/well. For in vitro stimulation of the cells, the peptide of SEQ ID NO: 15 was dissolved in DMSO at a concentration of 40 mg/ml, diluted with RPMI 1640 with 10% FBS to 40 μg/ml, and added to the splenocyte-containing wells at a final concentration of 10 μg/ml. The plate was incubated for 17 hours at 37° C. under an atmosphere of 5% CO2. Then, after removal of the culture medium from the wells, the ELISPOT plate was subjected to treatment for cell staining in accordance with the manufacturer's protocol. Stained spots were counted on ImmunoSpot Analyzer (C.T.L.).
The scale on the vertical axis of the graph of FIG. 1 indicates the number of cells (CTLs) which produced IFNγ in response to the stimulation with the peptide of SEQ ID NO: 15. The compound and the peptide administered to the mice are described under the bars. […] Therefore, effect of each vaccine in CTL induction is known from the difference in cell count between the black bar and the white bar. When no IFNγ is produced by cells in the absence of the stimulation with SEQ ID NO: 15, a white bar cannot have a height.
The solution was diluted with water for injection to a concentration of 10 mg/ml, and then converted to an emulsion by addition of an equal volume of Montanide ISA 51 VC.
(§1) The solution was diluted with water for injection to a concentration of 10 mg/ml, and then converted to an emulsion by addition of an equal volume of Montanide ISA 51 VG.
as §1, §1, §1, §1, §1, §1, §1, §1, §1

Sequence | Effect of the cocktail vaccine comprising the peptide on the CTL induction by the compound of formula (4) | CTL induction by the cocktail vaccine comprising the peptide in addition to the compound of formula (4) (increase in number of CTLs)
FKLSHLQMHSRKHTG [SEQ ID NO: 13] | enhanced | highly effective in CTL induction
RYFKLSHLQMHSRKHT [SEQ ID NO: 48] | enhanced | highly effective in CTL induction
YPGCNKRYFKLSHLQ [SEQ ID NO: 3] | enhanced | highly effective in CTL induction
RYFKLSHLQMHSRKH [SEQ ID NO: 11] | enhanced | highly effective in CTL induction
AYPGCNKRYFKLSHLQMHSRK [SEQ ID NO: 44] | enhanced | highly effective in CTL induction
KLSHLQMHSRKHTGE [SEQ ID NO: 14] | enhanced | highly effective in CTL induction
RYFKLSHLQMH [SEQ ID NO: 45] | enhanced | highly effective in CTL induction
AYPGCNKRYFKLSHL [SEQ ID NO: 2] | enhanced | highly effective in CTL induction
PGCNKRYFKLSHLQMHSRKHTG [SEQ ID NO: 4, reference compound] | enhanced | highly effective in CTL induction
KRYFKLSHLQMHSRKH [SEQ ID NO: 10, reference compound] | enhanced | highly effective in CTL induction
KRYFKLSHLQMHSRK [SEQ ID NO: 9] | enhanced | highly effective in CTL induction
AYPGCNKRYFKLSHLQMH [SEQ ID NO: 43] | enhanced | highly effective in CTL induction
GCNKRYFKLSHL [SEQ ID NO: 46] | enhanced | highly effective in CTL induction
NKRYFKLSHLQMHSRK [SEQ ID NO: 8] | enhanced | highly effective in CTL induction
RYFKLSHLQMHSRKHTGE [SEQ ID NO: 49] | enhanced | highly effective in CTL induction
RYFKLSHLQMHSRK [SEQ ID NO: 39] | enhanced | highly effective in CTL induction
YFKLSHLQMHSRKHT [SEQ ID NO: 12] | enhanced | highly effective in CTL induction
PGCNKRYFKLSHLQMHSRK [SEQ ID NO: 5] | enhanced | highly effective in CTL induction
GCNKRYFKLSHLQMHSRK [SEQ ID NO: 6] | enhanced | highly effective in CTL induction
CNKRYFKLSHLQMHSRK [SEQ ID NO: 7, reference compound] | enhanced | highly effective in CTL induction
